Assays:
[1] = MTT cell viability assay in normal MCF-10A cells; assay type: cell-based; conditions: human, MCF-10A normal mammary epithelial cells, read-out: Cell Viability (%) ± SD
Excerpt: MDA-MB-231 represents a specific subtype, known as the triple negative breast cancer (TNBC). […] We also included normal mammary epithelial MCF-10A cells in our experiments to confirm if the growth-inhibitory activities of the selected compounds are truly cancer cell-specific. […] Furthermore, none of these compounds did have any growth inhibitory activity against normal breast epithelial cell (MCF-10A). The IC50 values for these compounds against MDA-MB-231 cells (Fig. 2) are also included in Table 4 for comparison. Cell viability assay was performed as per standard protocols. After 72 h of cell incubation in the presence or absence of each compound, cell viability was evaluated by using MTT ((3-(4,5-dimethylthiazol-2-yl)-2,5-diphenyltetrazolium bromide)) (Himedia Pvt. Ltd, India). In brief, this is a homogeneous, colorimetric method for determining the number of viable cells in proliferation, cytotoxicity or chemosensitivity assays. MTT is bio reduced by cells into a formazan product that is […]. After 72 h of compound treatment, the medium was removed and 100 μL of MTT (0.5 mg ml^−1 in media) was added to the cells and kept in the dark for 3 h at 37 °C in the CO2 incubator and the formazan formed was dissolved in 100 μL DMSO (Dimethyl Sulfoxide). The absorbance of the formazan product at 595 nm was measured directly from 96-well assay plates without additional processing using a multimode plate reader (Bio-Rad) (iMark, India), as absorbance is directly proportional to the number of viable cells in culture. The percentage of viable cells in each group is determined with respect to the untreated control cells.

[2] = system: MCF-7 breast cancer cells; test: MTT cell viability assay in MCF-7 cells; assay type: cell-based; conditions: Homo sapiens, MCF7; for viability at 1 µM: MCF-7, 1 µM; for viability at 1 µM / viability at 10 µM / viability at 25 µM: read-out: Cell Viability (%) ± SD; for viability at 10 µM: MCF-7, 10 µM; for viability at 25 µM: MCF-7, 25 µM; for IC50: MCF-7, MTT, five concentrations (1.0, 5.0, 10.0, 25 and 50 µM)
COX-2 enzyme = molecular target: T1, COX-2 enzyme (Homo sapiens, UniProt P35354); test: Fluorescence-based COX-2 inhibitor screening assay; assay type: biochemical
T1 construct: purchased Bio Vision (BioVision), USA K547 / k547–100
T1 sequence (P35354 18-604): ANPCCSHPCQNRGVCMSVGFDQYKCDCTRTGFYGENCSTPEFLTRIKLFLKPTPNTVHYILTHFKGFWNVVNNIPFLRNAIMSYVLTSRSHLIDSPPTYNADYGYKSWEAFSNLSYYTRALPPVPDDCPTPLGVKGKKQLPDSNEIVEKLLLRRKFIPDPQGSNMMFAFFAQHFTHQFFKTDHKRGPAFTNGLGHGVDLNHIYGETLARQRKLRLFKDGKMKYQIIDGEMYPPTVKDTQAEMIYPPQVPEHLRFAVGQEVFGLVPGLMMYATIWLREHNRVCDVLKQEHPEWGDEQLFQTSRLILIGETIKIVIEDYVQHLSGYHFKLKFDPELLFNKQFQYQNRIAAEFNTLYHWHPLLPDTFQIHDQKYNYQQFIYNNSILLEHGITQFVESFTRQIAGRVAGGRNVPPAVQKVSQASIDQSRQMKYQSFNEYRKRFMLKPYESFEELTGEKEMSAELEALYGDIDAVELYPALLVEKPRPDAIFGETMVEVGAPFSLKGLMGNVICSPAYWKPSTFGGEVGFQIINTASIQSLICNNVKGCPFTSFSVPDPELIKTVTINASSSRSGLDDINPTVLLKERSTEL
Description: In this method we detect the fluorescence compound PGG2 which can easily be analysed with an excitation wavelength of 540 nm and emission wavelength of 590 nm. The result of COX-2 inhibitory activity has been summarised in Table 5 at two different concentrations.
Assay for cyclooxygenases (COXs) inhibition for COX-2 activity was determined by a fluorescence-based method using a COX-2 inhibitor screening assay kit (Bio vision, catalog # k547–100, S. millipitas Blvd, USA) in a total volume of 100 μL according to the directions provided with the kit manufacturer. The inhibitory activities of the tested compounds were based on the fluorometric detection of Prostaglandin G2 the intermediate product generated by the COX enzyme. The enzymes were preincubated for 5 min at 25 °C with the test compounds prior to addition of arachidonic acid. Celecoxib was used as positive control. Fluorescence was measured (Ex/Em = 540/590 nm) kinetically at 25 °C for 5–10 minutes. Two time point was chosen in the linear range of the plot and obtained the corresponding values (RFU1 and RFU2) The COX-2 inhibitory activity was calculated according to the equation. % Relative inhibition = Slope of EC − Slope of S/Slope of EC × 100. Where EC is the enzyme control and S is sample screen and slope of all the sample is calculated by dividing the net ΔRFU(RFU2 − RFU1) values by the ΔT (T2 − T1).

O=[N+]([O-])c1ccc2[nH]cc(-c3cc(C[C@@H]4O[C@H](CO)[C@@H](O)[C@H](O)[C@H]4O)no3)c2c1 [Compound 34, (2 R,3 S,4 R,5 R,6 S)-2-(hydroxymethyl)-6-((5-(5-nitro-1H-indol-3-yl)isoxazol-3-yl)methyl) tetrahydro-2H-pyran-3,4,5-triol]
viability at 72 h, 25 µM [1]: 87.6 ± 1.5%
viability at 72 h, 50 µM [1]: 80.1 ± 2.8%
viability at 72 h, 100 µM [1]: 84.2 ± 3%
viability at 1 µM [2]: 41.3 ± 3.1%
viability at 10 µM [2]: 28.4 ± 0.9%
viability at 25 µM [2]: 23.1 ± 4.4%
IC50 [2]: 0.71 µM
inhibition at 25 µM (COX-2 enzyme): 4.9%
inhibition at 50 µM (COX-2 enzyme): 59%

O=C(/C=C/c1c[nH]c2ccccc12)C[C@@H]1O[C@H](CO)[C@@H](O)[C@H](O)[C@H]1O [Compound 9, (E)-4-(1H-indol-3-yl)-1-((2S,3R,4R,5S,6R)-3,4,5-trihydroxy-6-(hydroxymethyl)tetrahydro-2H-pyran-2-yl)but-3-en-2-one]
viability at 72 h, 25 µM [1]: 87.6 ± 1.5%
viability at 72 h, 50 µM [1]: 81.3 ± 2.9%
viability at 72 h, 100 µM [1]: 84.2 ± 3%
viability at 1 µM [2]: 79.7 ± 1.18%
viability at 10 µM [2]: 62.3 ± 3.6%
viability at 25 µM [2]: 53.7 ± 4%
IC50 [2]: 30 µM
inhibition at 25 µM (COX-2 enzyme): 25%
inhibition at 50 µM (COX-2 enzyme): 71%

O=C(/C=C/c1c[nH]c2ccc(Cl)cc12)C[C@@H]1O[C@H](CO)[C@@H](O)[C@H](O)[C@@H]1O [Compound 20, (E)-4-(5-chloro-1H-indol-3-yl)-1-((2S,3S,4R,5S,6R)-3,4,5-trihydroxy-6-(hydroxymethyl)tetrahydro-2H-pyran-2-yl)but-3-en-2-one]
viability at 72 h, 25 µM [1]: 85.8 ± 5.3%
viability at 72 h, 50 µM [1]: 78.8 ± 3%
viability at 72 h, 100 µM [1]: 36.5 ± 3.4%
viability at 1 µM [2]: 79.2 ± 2.6%
viability at 10 µM [2]: 58.7 ± 2.4%
viability at 25 µM [2]: 47.3 ± 7.6%
IC50 [2]: 21 µM
inhibition at 25 µM (COX-2 enzyme): 13.7%
inhibition at 50 µM (COX-2 enzyme): 39%

OC[C@H]1O[C@@H](CC2=NNC(c3c[nH]c4ccccc34)C2)[C@H](O)[C@@H](O)[C@H]1O (stereo partly shown) [Compound 25, (2 S,3 R,4 R,5 R,6 R)-2-((5-(1H-indol-3-yl)-4,5-dihydro-1H-pyrazol-3-yl)methyl)-6-(hydroxy-methyl)tetrahydro-2H-pyran-3,4,5-triol]
viability at 72 h, 25 µM [1]: 87.6 ± 2.2%
viability at 72 h, 50 µM [1]: 84.6 ± 1.7%
viability at 72 h, 100 µM [1]: 82.4 ± 2.6%
viability at 1 µM [2]: 66 ± 4.7%
viability at 10 µM [2]: 34 ± 2.5%
viability at 25 µM [2]: 19.9 ± 2.9%
IC50 [2]: 4.67 µM
inhibition at 25 µM (COX-2 enzyme): 6.7%
inhibition at 50 µM (COX-2 enzyme): 27%

OC[C@H]1O[C@@H](Cc2cc(-c3c[nH]c4ccccc34)on2)[C@H](O)[C@@H](O)[C@H]1O [Compound 37, (2 S,3 R,4 R,5 R,6 R)-2-((5-(1H-indol-3-yl)isoxazol-3-yl)methyl)-6-(hydroxymethyl) tetrahydro-2H-pyran-3,4,5-triol]
viability at 72 h, 25 µM [1]: 86.8 ± 2.8%
viability at 72 h, 50 µM [1]: 83.2 ± 5.8%
viability at 72 h, 100 µM [1]: 81 ± 1.5%
viability at 1 µM [2]: 30.8 ± 4.2%
viability at 10 µM [2]: 21.2 ± 3.8%
viability at 25 µM [2]: 19.1 ± 3.5%
inhibition at 50 µM (COX-2 enzyme): 95%

Source: article PMC7170901, “Design and efficient synthesis of pyrazoline and isoxazole bridged indole C-glycoside hybrids as potential anticancer agents” (Scientific Reports, 2020)
